Values of other authors in patent publication US11873519B2, “Composition for preventing age-related metabolic and tissue degenerative changes” (priority 2017, dated 2024).

Test system: Ewing's sarcoma PDOX

L-methionine α-deamino-γ-mercaptomethane lyase [rMETase]
Serum and tumor MET levels versus controls: lower | Tumor growth compared to untreated control mice: effectively reduced tumor growth
